Measurements reported in the CheMixHub viscosity set.

Assay: xn = mol fraction of the nth substance listed

ClCCCl + CCO
viscosity [mPa·s], 101 kPa
Settings	303.15 K	313.15 K	323.15 K
x1 = 0.1495	0.842	–	–
x1 = 0.3026	0.736	–	–
x1 = 0.4507	0.681	–	–
x1 = 0.6007	0.662	–	–
x1 = 0.752	0.659	–	–
x1 = 0.8706	0.659	–	–
x2 = 0.064	0.6974	0.6126	0.5529
x2 = 0.1215	0.6779	0.5938	0.5336
x2 = 0.2295	0.6654	0.5787	0.512
x2 = 0.3279	0.6668	0.5767	0.5115
x2 = 0.3912	0.6702	0.5806	0.5107
x2 = 0.4726	0.6873	0.5896	0.5161
x2 = 0.5989	0.7253	0.6178	0.536
x2 = 0.752	0.7907	0.6671	0.5723
x2 = 0.8819	0.8746	0.7374	0.628

ClCCl + CCO
303.15 K, 101.3 kPa
Settings	viscosity [mPa·s]
x2 = 0.0625	0.395
x2 = 0.1074	0.398
x2 = 0.1915	0.4103
x2 = 0.2935	0.4387
x2 = 0.4162	0.4914
x2 = 0.5331	0.5595
x2 = 0.6811	0.6721
x2 = 0.7823	0.767
x2 = 0.8482	0.8337
x2 = 0.9067	0.8949
x2 = 0.9571	0.9476

CC(=O)O + CCOC(C)=O
viscosity [mPa·s], 101 kPa
Settings	298.15 K	313.15 K
x1 = 0.1049	0.459	–
x1 = 0.207	0.4949	–
x1 = 0.3037	0.5331	–
x1 = 0.399	0.5762	–
x1 = 0.4985	0.6289	–
x1 = 0.5996	0.689	–
x1 = 0.6988	0.7668	–
x1 = 0.8011	0.859	–
x1 = 0.8742	0.943	–
x2 = 0.102	0.97	0.791
x2 = 0.2035	0.867	0.707
x2 = 0.3037	0.771	0.634
x2 = 0.4101	0.697	0.579
x2 = 0.4979	0.644	0.538
x2 = 0.6006	0.582	0.488
x2 = 0.6962	0.543	0.454
x2 = 0.7971	0.499	0.419
x2 = 0.9048	0.46	0.388

ClCCCl + CCOC(C)=O
303.15 K, 101.3 kPa
Settings	viscosity [mPa·s]
x2 = 0.099	0.679
x2 = 0.2036	0.6354
x2 = 0.3005	0.602
x2 = 0.3976	0.5686
x2 = 0.4996	0.5353
x2 = 0.6025	0.5057
x2 = 0.6983	0.4784
x2 = 0.7998	0.4505
x2 = 0.9034	0.4236

C1CCC2=[NH+]CCCN2CC1.c1c[n-]cn1 + CN(C)C=O
298.15 K, 100 kPa
Settings	viscosity [mPa·s]
x1 = 0.0998	1.496
x1 = 0.1996	2.353
x1 = 0.2995	3.64
x1 = 0.3994	5.34
x1 = 0.4994	7.345
x1 = 0.5994	10.26
x1 = 0.6995	14.27
x1 = 0.7996	19.37
x1 = 0.8998	25.32

CCCC[n+]1ccn(C)c1.N[C@@H](CCC(=O)O)C(=O)[O-] + CO
Settings	viscosity [mPa·s]
313.15 K, 101 kPa, x1 = 0.7005	19.95

ClCCCl + CO
viscosity [mPa·s], 101 kPa
Settings	x2 = 0.1568	x2 = 0.2369	x2 = 0.4217	x2 = 0.5374	x2 = 0.6221	x2 = 0.6906	x2 = 0.7982	x2 = 0.8393	x2 = 0.912
303.15 K	0.6585	0.6407	0.6125	0.6032	0.5936	0.5824	0.5696	0.5617	0.5488
313.15 K	0.5772	0.5596	0.5318	0.5227	0.5094	0.5005	0.4915	0.4852	0.4762
323.15 K	0.5169	0.499	0.4709	0.4587	0.4506	0.4422	0.4323	0.4255	0.4199
